For test [1], the system named is HCV genotype 1b (Con1) replicon in HUH-7 cells. Description: HCV replicon luciferase reporter assay, genotype 1b. The class given is cell-based. The following applies: Hepatitis C virus, Huh-7, 72 h, HCV genotype 1b replicon luciferase, 3 days incubation. The gist of the method:
(§1)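 Replicon inhibition for both genotypes was measured as Renilla luciferase signal (EnduRen, 7.5 μM final, 2 h) after 3-day, 37° C exposure of replicon-bearing HUH-7 cells in 4% FCS DMEM, 0.5% DMSO. The 1b construct carries S1179I; the 1a H77 construct carries P1496L and S2204I. Twenty-point, 3-fold dilutions were fitted four-parametrically for EC50, and CC50 was taken from multiplexed Cell Titer-Blue.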

Test [2] relates to HCV genotype 1a (H77 strain) replicon in HUH-7 cells. Nature of the test: HCV replicon luciferase reporter assay, genotype 1a. The class given is cell-based. The conditions noted are these: Hepatitis C virus, Huh-7, 72 h, HCV genotype 1a replicon luciferase, 3 days incubation. The gist of the method:
as §1

Read-outs that look alike come from different tables or passages of the source. Some results are limits rather than exact numbers.

For the compound `CCCOc1cnc(O[C@@H]2C[C@H]3C(=O)N[C@]4(C(=O)NS(=O)(=O)C5(C)CC5)C[C@H]4/C=C\CC[C@H](C)C[C@@H](C)[C@H](NC(=O)OCC4(C)CC4)C(=O)N3C2)c2ccccc12` [Compound 5082, (1-methylcyclopropyl)methyl ((2R,6S,7R,9S,13aS,14aR,16aS,Z)-7,9-dimethyl-14a-(((1-methylcyclopropyl)sulfonyl)carbamoyl)-5,16-dioxo-2-((4-propoxyisoquinolin-1-yl)oxy)-1,2,3,5,6,7,8,9,10,11,13a,14,14a,15,16,16a-hexadecahydrocyclopropa[e]pyrrolo[1,2-a][1,4]diazacyclopentadecin-6-yl)carbamate], the EC50 in test [1] (read-out: LE_1b (EC50)) is 45.5 nM; in test [1] (read-out: LE_1b (EC50, range)), 4.82 to 103 nM; in test [2] (read-out: LE_1a (EC50)), 198 nM; in test [2] (read-out: LE_1a (EC50, range)), greater than 87.4 nM.

With `CCCOc1cnc(O[C@@H]2C[C@H]3C(=O)N[C@]4(C(=O)NS(=O)(=O)C5(C)CC5)C[C@H]4/C=C\CC[C@@H](C)C[C@@H](C)[C@H](NC(=O)OCC4(C)CC4)C(=O)N3C2)c2ccccc12` [Compound 5083, (1-methylcyclopropyl)methyl ((2R,6S,7R,9R,13aS,14aR,16aS,Z)-7,9-dimethyl-14a-(((1-methylcyclopropyl)sulfonyl)carbamoyl)-5,16-dioxo-2-((4-propoxyisoquinolin-1-yl)oxy)-1,2,3,5,6,7,8,9,10,11,13a,14,14a,15,16,16a-hexadecahydrocyclopropa[e]pyrrolo[1,2-a][1,4]diazacyclopentadecin-6-yl)carbamate], the EC50 was less than 5.46 nM in test [1] (read-out: LE_1b (EC50, range)) and less than 5.46 nM in test [2] (read-out: LE_1a (EC50, range)).

With `CCCOc1cnc(O[C@@H]2C[C@H]3C(=O)N[C@]4(C(=O)NS(=O)(=O)C5(C)CC5)C[C@H]4/C=C\CC[C@H](C)C[C@@H](C)[C@H](NC(=O)O[C@H](C)C(F)(F)F)C(=O)N3C2)c2ccccc12` [Compound 5084, (R)-1,1,1-trifluoropropan-2-yl ((2R,6S,7R,9S,13aS,14aR,16aS,Z)-7,9-dimethyl-14a-(((1-methylcyclopropyl)sulfonyl)carbamoyl)-5,16-dioxo-2-((4-propoxyisoquinolin-1-yl)oxy)-1,2,3,5,6,7,8,9,10,11,13a,14,14a,15,16,16a-hexadecahydrocyclopropa[e]pyrrolo[1,2-a][1,4]diazacyclopentadecin-6-yl)carbamate], the half-maximal effective concentration (EC50) in test [1] (read-out: LE_1b (EC50)) is 131 nM; in test [1] (read-out: LE_1b (EC50, range)), greater than 87.4 nM; in test [2] (read-out: LE_1a (EC50)), 520 nM; in test [2] (read-out: LE_1a (EC50, range)), greater than 87.4 nM.

With `CCCOc1cnc(O[C@@H]2C[C@H]3C(=O)N[C@]4(C(=O)NS(=O)(=O)C5(C)CC5)C[C@H]4/C=C\CC[C@@H](C)C[C@@H](C)[C@H](NC(=O)O[C@H](C)C(F)(F)F)C(=O)N3C2)c2ccccc12` [Compound 5085, (R)-1,1,1-trifluoropropan-2-yl ((2R,6S,7R,9R,13aS,14aR,16aS,Z)-7,9-dimethyl-14a-(((1-methylcyclopropyl)sulfonyl)carbamoyl)-5,16-dioxo-2-((4-propoxyisoquinolin-1-yl)oxy)-1,2,3,5,6,7,8,9,10,11,13a,14,14a,15,16,16a-hexadecahydrocyclopropa[e]pyrrolo[1,2-a][1,4]diazacyclopentadecin-6-yl)carbamate], the EC50 in test [1] (read-out: LE_1b (EC50, range)) was 4.82 to 103 nM; in test [2] (read-out: LE_1a (EC50, range)) it was 4.82 to 103 nM.

Regarding `CCCOc1cnc(O[C@@H]2C[C@H]3C(=O)N[C@]4(C(=O)NS(=O)(=O)C5(C)CC5)C[C@H]4/C=C\CC[C@H](C)C[C@@H](C)[C@H](NC(=O)NC(C)(C)C(F)(F)F)C(=O)N3C2)c2ccccc12` [Compound 5086, (2R,6S,7R,9S,13aS,14aR,16aS,Z)-7,9-dimethyl-N-((1-methylcyclopropyl)sulfonyl)-5,16-dioxo-2-((4-propoxyisoquinolin-1-yl)oxy)-6-(3-(1,1,1-trifluoro-2-methylpropan-2-yl)ureido)-1,2,3,5,6,7,8,9,10,11,13a,14,14a,15,16,16a-hexadecahydrocyclopropa[e]pyrrolo[1,2-a][1,4]diazacyclopentadecine-14a-carboxamide], the EC50 in test [1] (read-out: LE_1b (EC50)) was 155 nM; in test [1] (read-out: LE_1b (EC50, range)), greater than 87.4 nM; in test [2] (read-out: LE_1a (EC50)) it was 411 nM; in test [2] (read-out: LE_1a (EC50, range)) it was greater than 87.4 nM.

For the origin of these results see patent US9499550B2 (BRISTOL-MYERS SQUIBB COMPANY, priority 2012, dated 2016).
